Structures can show the parent of a compound that is named as a salt. Where two headings read alike, the source gives them in different places.
Legend:
[1] = tested on: thrombocyte aggregation in the platelet-rich plasma of healthy human donors; experiment: Born test; collagen aggregation; type: cell-based; details: for 50% diminution of aggregation: times lower concentration than compound N: vs compound N (acetylsalicylic acid); for inhibition at 0.1 µM: 10^-^7 mol/liter
Experimental: b. […] The rate of decline of the optical density of platelet suspensions was measured and recorded photometrically after the addition of commercial collagen. From the angle of inclination of the density curve, the rate of aggregation was estimated. The optical density was taken at the point on the curve where most light was transmitted. The amount of collagen was chosen such that an irreversible control curve was obtained. The results were expressed in terms of the optical density and represent the percentage change in light transmission (= % diminution of the aggregation) caused by the test compound compared with the untreated control.

[2] = tested on: adjuvant arthritis in the rat; experiment: Adjuvant arthritis in the rat; type: in vivo; details: for ED50: po, 504 h, per os, once a day for 20 days, paw volume on 21st day, read-out: Adjuvant arthritis in the rat ED50 per os (average value of primary and secondary reaction); for activity against adjuvant arthritis compared with phenylbutazone (D) (in words): vs phenylbutazone (D)
Experimental: d. Adjuvant arthritis in the rat: The adjuvant arthritis tests in rats were carried out according to the method of Rosenthale and Nagra [Proc. Soc. exp. Biol. 125, 149 (1967)]. […] The test compound was administered once a day, starting with the day of the M. butyricum-injection, for a period of 20 days by means of an esophageal tube. […] An ED50 was determined graphically from the reduction of the swelling caused by the administration of different doses.

[3] = tested on: carrageenin-induced edema of the hind paw of the rat; experiment: Carrageenin edema of the back paw of the rat; type: in vivo; details: per os, 60 minutes before edema, swelling at 3 hours
Experimental: (§1) Compound A and known compound B were tested to determine their actue antiexsudative effect on the kaolin-induced edema and the carrageenin-induced edema of the hind paw of the rat and their acute toxicity after oral administration in rats.
b. Carrageenin edema of the back paw of the rat:
(§2) The provocation of the carrageenin edema was effected according to the method of Winter et al [Proc. Soc. exp. Biol. Med. 111, 544 (1962)] by subplantar injection of 0.05 ml of a 1% solution of carrageenin in an aqueous 0.85% solution of sodium chloride. The test compound was administered 60 minutes before the provocation of the edema.
(§3) For the calculation of the reductive effect on the edema, the size of the swelling was measured 3 hours after the provocation of the edema. All the other details were the same as described above in the case of the kaolin edema.

[4] = tested on: kaolin-induced edema of the hind paw of the rat; experiment: Kaolin edema of the hind paw of the rat; type: in vivo; details: per os, 30 minutes before edema, 35% reduction of swelling at 5 hours
Experimental: as §1
a. Kaolin edema of the hind paw of the rat:
(§4) The kaolin edema was induced according to the method of Hillebrecht [Arzneimittel-Forsch. 4, 607 (1954] by subplantar injection of 0.05 ml of a 10% suspension of kaolin in an aqueous 0.85% sodium chloride solution. Measurement of the thickness of the paws was effected using the technique of Doepfner and Cerletti [Int. Arch. Allergy Immunol. 12, 89 (1958)]. The test compound was administered perorally by means of an esophageal tube to male FW 49-rats having an average body weight of 120 to 150 gm 30 minutes before inducing the edema. 5 hours after the provocation of the edema, the average size of the swelling in the rats treated with the test compound was compared with the average size of the swelling in the control animals treated by a dummy procedure. By graphical extrapolation, the dose leading to a 35% reduction of the swelling (ED35) was calculated from the percentage reduction in the size of the swelling caused by the administration of different doses.

[5] = tested on: platelet stickiness in human citrate blood; experiment: Morris test (platelet stickiness, retention on glass beads); type: cell-based; details: for inhibition at 100 µM: Platelet, 10 min, 10^-^4 mol/liter, human citrate blood, read-out: Morris test (percentage reduction in the stickiness)
Experimental: The principle of the Morris test is described in "Stoffwechsel- and Membranpermeabilitat von Erythrozyten und Thrombozyten, I. Int.
1 ml of human citrate blood was pipetted into each of a number of small test tubes, the test compound was added in the desired concentrations, and the tubes were incubated at 37° C for 10 minutes. 2 gm each of glass beads (about 100 mesh) were added to half of the tubes. The tubes, stoppered by means of a plastic plug, were attached to a vertical wheel and rotated for 45 seconds end-over-end. The same tubes were then left to stand at ambient temperature for a further hour, after which time a sedimentation of erythrocytes and glass beads had taken place. 0.01 ml of the supernatant plasma was removed and diluted with 1:800 celloscope solution. The platelet count was read in a celloscope. The percentage of the thrombocytes retained in the sediment (adhering to the glass beads or aggregating) was calculated from the difference of the thrombocyte counts with and without glass contact.
The results were expressed in terms of the percentage reduction in the stickiness compared with the control (without addition of test compound).

[6] = Acute toxicity in the rat, oral; type: in vivo; details: in vivo, po, per os, male and female FW 49-rats, within 14 days
Experimental: (§5) The test compound was administered in the form of a trituration in tylose.
(§6) The calculation of the LD50 values was effected, to the extent possible, according to the method of Litchfield and Wilcoxon, based on the percentage of animals which died within 14 days after administration of the different doses.

rat = experiment: Acute toxicity in the rat, oral; type: in vivo; details: per os, vs compound E
Experimental: as §5, §6

[7] = tested on: kaolin- and carrageenin-induced edemas; experiment: Kaolin and carrageenin edema combined: average ED35 and therapeutic ratio LD50/ED35; type: in vivo; details: for ED35: Rattus norvegicus, read-out: Average value ED35; for Therapeutic ratio: ratio of toxic and anti-exsudative activity LD50 / ED35: oral LD50 / average ED35, rat
Experimental: as §4, §2, §3
The therapeutic index (a measure of the therapeutic usefulness) was calculated as the quotient of the oral LD50 value and the ED35 value derived from the tests to determine the antiexsudative activity against kaolin- and carrageenininduced edemas.

[8] = Homo sapiens, 10^-^4 mol/liter, read-out: Born test (% diminution of the aggregation)
[9] = Homo sapiens, 10^-^5 mol/liter, read-out: Born test (% diminution of the aggregation)
[10] = Homo sapiens, 10^-^6 mol/liter, read-out: Born test (% diminution of the aggregation)
[11] = Homo sapiens, read-out: Born test (% diminution of the aggregation)

Compound	inhibition at 100 µM [1, 8] [%]	inhibition at 10 µM [1, 9] [%]	inhibition at 1 µM [1, 10] [%]	50% diminution of aggregation: times lower concentration than compound N [1]	inhibition at 0.1 µM [1, 11] [%]	also measured
CN1C(C(=O)Nc2cccc(Cl)c2)=C(O)c2ccc3ccccc3c2S1(=O)=O [F, N-(3-Chloro-phenyl)-4-hydroxy-2-methyl-2H-naphtho[2,1-e]-1,2-thiazine-3-carboxamide-1,1-dioxide]	96	81	35	at least 20 times lower		
Cc1ccnc(NC(=O)C2=C(O)c3ccc4ccccc4c3S(=O)(=O)N2C)c1 [H, Sodium salt of 4-hydroxy-2-methyl-N-(4-methyl-2-pyridyl)-2H-naphtho[2,1-e]-1,2-thiazine-3-carboxamide-1,1-dioxide]	95	91	82	at least 100 times lower		
CN1C(C(=O)Nc2cncc(Cl)n2)=C(O)c2ccc3ccccc3c2S1(=O)=O [I, N-(6-Chloro-2-pyrazinyl)-4-hydroxy-2-methyl-2H-naphtho[2,1-e]-1,2-thiazine-3-carboxamide-1,1-dioxide]		91	91	at least 100 times lower	22	
Cc1csc(NC(=O)C2=C(O)c3ccc4ccccc4c3S(=O)(=O)N2C)n1 [J, 4-Hydroxy-2-methyl-N-(4-methyl-2-thiazolyl)-2H-naphtho[2,1-e]-1,2-thiazine-3-carboxamide-1,1-dioxide]	92	89	88	at least 100 times lower	4	
CC(=O)Oc1ccccc1C(=O)O [N, acetylsalicylic acid, reference compound]						inhibition at 10 µM [1, 11]: 13%; inhibition at 30 µM [1, 11]: 45%; IC50 ([1]; Homo sapiens, read-out: concentration causing a 50% diminution of aggregation): ~40 µM
Cc1cnc(NC(=O)C2=C(O)c3ccc4ccccc4c3S(=O)(=O)N2C)s1 [K, 4-Hydroxy-2-methyl-N-(5-methyl-2-thiazolyl)-2H-naphtho[2,1-e]-1,2-thiazine-3-carboxamide-1,1-dioxide]	89	97	66	at least 20 times lower		
CN1C(C(=O)Nc2ccccn2)=C(O)c2ccc3ccccc3c2S1(=O)=O [C, 4-Hydroxy-2-methyl-N-(2-pyridyl)-2H-naphtho[2,1-e]-1,2-thiazine-3-carboxamide-1,1-dioxide]						activity against adjuvant arthritis (in words) [2]: surprisingly strong activity; ED50 [2]: ~4 mg/kg; activity against adjuvant arthritis compared with phenylbutazone (D) (in words) [2]: far superior
CCc1nc(NC(=O)C2=C(O)c3ccc4ccccc4c3S(=O)(=O)N2C)sc1C [M, N-(4-Ethyl-5-methyl-2-thiazolyl)-4-hydroxy-2-methyl-2H-naphtho[2,1-e]-1,2-thiazine-3-carboxamide-1,1-dioxide]	94	91	79	at least 100 times lower	24	
CN1C(C(=O)Nc2nccs2)=C(O)c2ccc3ccccc3c2S1(=O)=O [Compound A, 4-Hydroxy-2-methyl-N-(2-thiazolyl)-2H-naphtho[2,1-e]-1,2-thiazine-3-carboxamide-1,1-dioxide]	96	95	92		65	ED35 [3]: 11 mg/kg; 50% diminution of the aggregation: times lower concentration than compound E ([1]; vs compound E (sudoxicam)): at least 10 times lower; inhibiting effect on the thrombocyte aggregation compared with compound E (in words) ([1]; vs compound E (sudoxicam)): significantly stonger; activity against adjuvant arthritis (in words) [2]: surprisingly strong activity; ED50 [2]: < 2 mg/kg; activity against adjuvant arthritis compared with phenylbutazone (D) (in words) [2]: far superior; ED35 [4]: 13.5 mg/kg; inhibition at 100 µM [5]: 43%; LD50 at 336 h [6]: 207 mg/kg; toxicity compared with compound E (in words) (rat): less toxic; ED35 [7]: 12.2 mg/kg; Therapeutic ratio: ratio of toxic and anti-exsudative activity LD50 / ED35 [7]: 16.9; therapeutic ratio relative to known compound B ([7]; vs compound B (indomethacin)): twice as great
Cc1nc(NC(=O)C2=C(O)c3ccc4ccccc4c3S(=O)(=O)N2C)sc1C [L, N-(4,5-Dimethyl-2-thiazolyl)-4-hydroxy-2-methyl-2H-naphtho[2,1-e]-1,2-thiazine-3-carboxamide-1,1-dioxide]	91	95	88	at least 100 times lower	15	
CCCCC1C(=O)N(c2ccccc2)N(c2ccccc2)C1=O [D, phenylbutazone, reference compound]						ED50 [2]: ~40 mg/kg
Cc1cccc(NC(=O)C2=C(O)c3ccc4ccccc4c3S(=O)(=O)N2C)c1 [G, 4-Hydroxy-2-methyl-N-(3-tolyl)-2H-naphtho[2,1-e]-1,2-thiazine-3-carboxamide-1,1-dioxide]	97	78	65	at least 20 times lower		
CN1C(C(=O)Nc2nccs2)=C(O)c2ccccc2S1(=O)=O [E, 4-hydroxy-2-methyl-N-(2-thiazolyl)-2H-1,2-benzothiazine-3-carboxamide-1,1-dioxide, reference compound]						inhibition at 1 µM [1, 11]: 33%; inhibition at 10 µM [1, 11]: 91%; inhibition at 100 µM [1, 11]: 92%; inhibition at 100 µM [5]: 3%; inhibition of the stickiness in the Morris test in comparison with compound A (in words) ([5]; vs compound A): practically ineffective; LD50 at 336 h [6]: 136 mg/kg
COc1ccc2c(c1)c(CC(=O)O)c(C)n2C(=O)c1ccc(Cl)cc1 [B, indomethacin, reference compound]						ED35 [3]: 2.9 mg/kg; ED35 [4]: 2.7 mg/kg; LD50 at 336 h [6]: 25.7 mg/kg; ED35 [7]: 2.8 mg/kg; Therapeutic ratio: ratio of toxic and anti-exsudative activity LD50 / ED35 [7]: 9.2
